What was measured:
blood glucose [1] = assay: Hypoglycemic activity: dose-effect relationship in normal rats; type: in vivo, male Wistar rats
Method: Five male Wistar rats weighing about 170g were used at each dosage level. […] 2, 3 and 5 hours after administration, a blood sample was taken from the tail vein of the rat and assayed for glucose by the glucose oxidase method.

serum lactate = assay: Effect on serum lactate level; type: in vivo, male Wister rat; conditions: 200 mg/kg daily oral for 4 days; for Percent of Initial Serum Lactate, 24 hrs: just before the 2nd dosing; for Percent of Initial Serum Lactate, 76 hrs: 3 hours after the last dosing
Method: An aqueous solution or suspension of a test compound was orally administered to a normal male Wister rat weighing about 200 g at a daily dose of 200 mg/kg body weight for 4 days (5 rats/group). Blood samples were taken consecutively from the tail vein, and were assayed for serum lactate by the method of Hans-Jurgens Hohorst (Methods of Enzymatic Analysis, ed. by Hans Ulrich Bergmayer, Academic Press Inc., New York, 1965).

blood glucose [2] = assay: Long-term administration in streptozotocin-induced diabetic rats: fed blood glucose; type: in vivo, male Wistar rats (streptozotocin diabetic); conditions: 485 ± 18 at start, control 415 ± 27
Method: (§1) Diabetes was induced in male Wistar rats weighing about 170 g by a single intraperitoneal (60 mg/kg body weight) or intravenous (35 mg/kg) injection of streptozotocin. […] These rats were treated with Compound A, tolubutamide or phenformin at a daily oral dose of 25, 50 or 10 mg/kg body weight, respectively. Control diabetic rats received no treatment. The treatment was started 1 month after streptozotocin injection and continued for 4 (tolubutamide and phenformin) or 5 months (Compound A).
Fed blood glucose levels of the rats were 485 ± 18 mg/dl at the start of the treatment and 415 ± 27 (control group), 423 ± 17 (Compound A group), 447 ± 15 (tolubutamide group) and 425 ± 29 mg/dl (phenformin group) at the end of the experiment.

serum lipids = assay: Long-term administration in streptozotocin-induced diabetic rats: serum lipids; type: in vivo, male Wistar rats (streptozotocin diabetic); conditions: for hyperlipidemia / serum triglyceride tendency (in words): long-term administration, diabetic rats
Method: as §1
(§2) At the end of the experiment, the rats were sacrificed for histological examination of the kidneys and the liver and for determination of serum lipids.

platelet aggregation = assay: Inhibitory action on collagen-induced platelet aggregation in platelet rich plasma; type: cell-based; conditions: concentration giving 50% inhibition of reaction rate of collagen-induced platelet aggregation, rat platelet rich plasma, 30° C; read-out: Inhibitory Action ID50
Method: Platelet rich plasma was prepared by centrifugation (1000 rpm, 5 min.) of fresh citrated rat blood. Fifty microliters of a solution containing a test compound at various concentrations were added to 0.4 ml of the platelet rich plasma, and the mixture was stirred for 1 minute at 1100 rpm and 30° C. Then, 50 μl of a collagen suspension was added to initiate platelet aggregation, which was measured turbidometrically according to G.V.R. Born (Nature, 194, 927, 1962). The ID50 values represent the concentration (mM) of the compound giving a 50% inhibition of the reaction rate of […] platelet aggregation.

[3] = Acute toxicity in rats by oral administration; conditions: rat, in vivo, male Donryu rats, mortality on the 7th day, Litchfield and Wilcoxon
Method: Acute Toxicity tests were carried out in rats by oral administration. Each LD50 was calculated from the mortality percentage on the 7th day according to the method of Litchfield and Wilcoxon. Ten male rats of the Donryu strain were used at each dose level.

blood glucose [4] = assay: Glucose tolerance test in normal rats; type: in vivo, male Wistar rats
Method: Five male Wistar rats weighing about 200g were used at each dose level. An aqueous solution or suspension of a test compound was orally administered by means of a stomach tube to each rat which had not been fed for 24 hours before administration. […] Blood samples were taken from the tail vein just before and 15, 30, 60 and 90 minutes after glucose loading, and were assayed for blood glucose. The glucose tolerance of the rats was estimated by the increase in blood glucose during the 90 minutes after glucose loading [formula]

blood glucose [5] = assay: Glucose tolerance test in streptozotocin-induced mildly diabetic rats; type: in vivo, male Wistar rats (streptozotocin diabetic)
Method: An aqueous solution or suspension of a test compound was orally administered to male Wistar rats which had not been fed for 24 hours prior to oral administration and which had been rendered diabetic for about 2 months by a single intravenous injection of streptozotocin (20 mg/kg body weight). Control diabetic rats received water. Unfed (fasted) and fed blood glucose levels of the rats were 89 ± 1~103 ± 4 mg/dl and 123 ± 2~189 ± 11 mg/dl, respectively. […] Blood samples were taken from the tail vein just before and 15, 30, 60 and 90 minutes after glucose loading, and were assayed for blood glucose. The glucose tolerance of the rats was estimated by the increase in blood glucose during the 90 minutes after glucose loading, i.e., [formula]

[6] = system: immunoreactive insulin (IRI); assay: Insulin releasing action; type: in vivo, male Wistar rat
Method: A saline solution containing a test compound was injected into the femoral vein of a normal male Wistar rat weighing about 200 g under pentobarbital anesthesia (5 rats/group). Control rats received a saline injection. Blood samples were taken from the tail vein before and 10, 20, 30 and 40 minutes after injection of the test compound, and were assayed for immunoreactive insulin (IRI) by the method of C. R. Morgan et al (Diabetes, 12, 115.1963).

kidneys = assay: Long-term administration in streptozotocin-induced diabetic rats: histological examination of the kidneys; type: in vivo, male Wistar rats (streptozotocin diabetic)
Method: as §1, §2

[7] = 10 mg/kg daily, 4 months, 7 rats, * = significant, p < 0.05 vs. diabetic control
[8] = 25 mg/kg oral, fasted normal rats
[9] = 10 mg/kg oral, 1 hour prior to glucose loading
[10] = 10 mg/kg oral, 1 hour prior to glucose loading (1 g/kg i.p.), control 121 ± 14 (A), 127 ± 8 (B, C)
[11] = 10 mg/kg oral, 1 hour prior to glucose loading, control 265 ± 21 (A), 206 ± 18 (B, C)
[12] = 25 mg/kg i.v., control 50 ± 8, 0-40 minutes
[13] = 20 mg/kg oral, given 30 minutes prior to glucose loading
[14] = 50 mg/kg daily, 4 months, 8 rats
[15] = 25 mg/kg daily, 5 months, 7 rats

Molecule: [H]/N=C(/N)N/C(=N/[H])NCCc1ccccc1 [Phenformin, phenformin, reference compound]
- Decrease in blood glucose (% based on the control), 2 hrs (blood glucose [1]; Dose = 100 mg/kg oral): 10%
- Decrease in blood glucose (% based on the control), 3 hrs (blood glucose [1]; Dose = 100 mg/kg oral): 15%
- Decrease in blood glucose (% based on the control), 5 hrs (blood glucose [1]; Dose = 100 mg/kg oral): 15%
- Percent of Initial Serum Lactate, 24 hrs (serum lactate): 196.6%
- Percent of Initial Serum Lactate, 76 hrs (serum lactate): 283.6%
- Fed blood glucose level at the end of the experiment (blood glucose [2]; 10 mg/kg daily oral, 4 months): 425 ± 29 mg/dL
- Serum cholesterol (serum lipids; [7]): 180.0 % of control
- Serum free fatty acid (serum lipids; [7]): 157.0 % of control
- Serum triglyceride (serum lipids; [7]): 225.7 % of control
- hyperlipidemia / serum triglyceride tendency (in words) (serum lipids): increased tendency of hyperlipidemia

Molecule: 1-methyl-2-benzhydryliminoimidazolidine.hydroiodide [Example 4]
- Decrease in blood glucose (% based on the control), 3 hrs (blood glucose [1]; [8]): 32%
- Decrease in blood glucose (% based on the control), 5 hrs (blood glucose [1]; [8]): 19%

Molecule: CN1CCN(C(=O)c2cccnc2)C1=NC(c1ccccc1)c1ccccc1 [Compound F, 1-methyl-2-benzhydrylimino-3-nicotinoyl-imidazolidine]
- IC50 (platelet aggregation): 480 µM

Molecule: CN1CCN(C(=O)c2ccccc2)C1=NC(c1ccccc1)c1ccccc1 [Compound D, 1-methyl-2-benzhydrylimino-3-benzoylimidazolidine]
- IC50 (platelet aggregation): 270 µM
- LD50 at 168 h [3]: > 1000 mg/kg

Molecule: 2-benzhydryliminoimidazolidine hydrochloride [Example 3]
- Decrease in blood glucose (% based on the control), 3 hrs (blood glucose [1]; [8]): 39%
- Decrease in blood glucose (% based on the control), 5 hrs (blood glucose [1]; [8]): 39%

Molecule: c1ccc(C(CC2=NCCN2)c2ccccc2)cc1 [Compound B, 2-(2,2-diphenylethyl)-2-imidazoline]
- Increase in glucose tolerance (blood glucose [4]; [9]): 96.9%
- Increase in blood glucose during the 90 minutes after glucose loading, test compound (head [drawing 13]) (blood glucose [4]; [10]): 4 ± 12
- Improvement of glucose tolerance (blood glucose [5]; [9]): 74.8%
- Increase in blood glucose during the 90 minutes after glucose loading, test compound (head [drawing 15]) (blood glucose [5]; [11]): 52 ± 12
- Insulin Released [ΣΔIRI (0-40)] [6, 12]: 250 ± 13 μunit/ml serum
- IC50 (platelet aggregation): 50 µM
- Percent of Initial Serum Lactate, 24 hrs (serum lactate): 139.6%
- Percent of Initial Serum Lactate, 76 hrs (serum lactate): 113.3%
- LD50 at 168 h [3]: 562 mg/kg

Molecule: CN1CCCC1=NC(c1ccccc1)c1ccccc1 [Compound Z, reference compound]
- Percent of Initial Serum Lactate, 24 hrs (serum lactate): 152.1%
- Percent of Initial Serum Lactate, 76 hrs (serum lactate): 218.8%

Molecule: CCCCNC(=O)NS(=O)(=O)c1ccc(C)cc1 [Tolubutamide, tolubutamide, reference compound]
- Decrease in blood glucose (% based on the control), 2 hrs (blood glucose [1]; [8]): 20%
- Decrease in blood glucose (% based on the control), 3 hrs (blood glucose [1]; [8]): 24%
- Decrease in blood glucose (% based on the control), 5 hrs (blood glucose [1]; [8]): 20%
- Increase in glucose tolerance (blood glucose [4]; [13]): 31.4%
- Increase in blood glucose during the 90 minutes after glucose loading, test compound (head [drawing 13]) (blood glucose [4]; 20 mg/kg oral, given 30 minutes prior to glucose loading (1 g/kg i.p.), control 121 ± 14): 83 ± 14
- Improvement of glucose tolerance (blood glucose [5]; [13]): 32.6%
- Increase in blood glucose during the 90 minutes after glucose loading, test compound (head [drawing 15]) (blood glucose [5]; 20 mg/kg oral, given 30 minutes prior to glucose loading, 3 rats, control 265 ± 21): 179 ± 23
- Insulin Released [ΣΔIRI (0-40)] ([6]; 50 mg/kg i.v., control 50 ± 8, 0-40 minutes): 189 ± 26 μunit/ml serum
- Insulin Released [ΣΔIRI (0-40)] ([6]; 50 mg/kg i.v., second column (control 42 ± 19), 0-40 minutes): 141 ± 14 μunit/ml serum
- Fed blood glucose level at the end of the experiment (blood glucose [2]; 50 mg/kg daily oral, 4 months): 447 ± 15 mg/dL
- Serum free fatty acid (serum lipids; [14]): 133.0 % of control
- Serum triglyceride (serum lipids; [14]): 186.8 % of control
- Serum cholesterol (serum lipids; 50 mg/kg daily, 4 months, 8 rats, * = significant, p < 0.05 vs. diabetic control): 150.0 % of control
- hyperlipidemia / serum triglyceride tendency (in words) (serum lipids): increased tendency of hyperlipidemia
- kidney histology: diffuse glomerulosclerosis and tubular alterations (in words) (kidneys): to some extent, deteriorated

Molecule: CN1CCN=C1CC(c1ccccc1)c1ccccc1 [Compound C, 1-methyl-2-(2,2-diphenylethyl)-2-imidazoline]
- Increase in glucose tolerance (blood glucose [4]; [9]): 26.0%
- Increase in blood glucose during the 90 minutes after glucose loading, test compound (head [drawing 13]) (blood glucose [4]; [10]): 94 ± 8
- Improvement of glucose tolerance (blood glucose [5]; [9]): 17.5%
- Increase in blood glucose during the 90 minutes after glucose loading, test compound (head [drawing 15]) (blood glucose [5]; [11]): 170 ± 15
- Insulin Released [ΣΔIRI (0-40)] [6, 12]: 214 ± 17 μunit/ml serum
- IC50 (platelet aggregation): 120 µM

Molecule: CN1CCCC1=NC(c1ccccc1)c1ccccc1 [Compound Q, Benzhydryl Lactamimide, reference compound]
- Insulin Released [ΣΔIRI (0-40)] [6, 12]: 198 ± 16 μunit/ml serum

Molecule: CN1CCN(C(=O)c2cccs2)C1=NC(c1ccccc1)c1ccccc1 [Compound E, 1-methyl-2-benzhydrylimino-3-thienoylimidazolidine]
- IC50 (platelet aggregation): 130 µM
- LD50 at 168 h [3]: > 1000 mg/kg

Molecule: CN1CCNC1=NC(c1ccccc1)c1ccccc1 [Compound A, 1-methyl-2-benzhydryliminoimidazolidine]
- Increase in glucose tolerance (blood glucose [4]; [9]): 52.1%
- Increase in blood glucose during the 90 minutes after glucose loading, test compound (head [drawing 13]) (blood glucose [4]; [10]): 58 ± 4
- Improvement of glucose tolerance (blood glucose [5]; [9]): 43.0%
- Increase in blood glucose during the 90 minutes after glucose loading, test compound (head [drawing 15]) (blood glucose [5]; [11]): 151 ± 43
- Insulin Released [ΣΔIRI (0-40)] ([6]; 25 mg/kg i.v., second column (control 42 ± 19), 0-40 minutes): 208 ± 21 μunit/ml serum
- IC50 (platelet aggregation): 320 µM
- Percent of Initial Serum Lactate, 24 hrs (serum lactate): 114.9%
- Percent of Initial Serum Lactate, 76 hrs (serum lactate): 94.6%
- Fed blood glucose level at the end of the experiment (blood glucose [2]; 25 mg/kg daily oral, 5 months): 423 ± 17 mg/dL
- Serum cholesterol (serum lipids; [15]): 78.7 % of control
- Serum free fatty acid (serum lipids; [15]): 86.1 % of control
- Serum triglyceride (serum lipids; 25 mg/kg daily, 5 months, 7 rats, * = significant, p < 0.05 vs. diabetic control): 53.0 % of control
- LD50 at 168 h [3]: 660 mg/kg
